Measurements reported in patent US20090123940A1, “MOLECULES INVOLVED IN SYNAPTOGENESIS AND USES THEREFOR” (THE JOHNS HOPKINS UNIVERSITY, priority 2007, published 2009).

Columns and labels:
[1] = system: Purkinje cells cultured from embryonic mouse cerebellum; test: LTD of glutamate-evoked inward current in cultured Purkinje cells (glutamate test pulses paired with depolarizing steps); assay type: cell-based; settings: t=40 min; TAPI-2 10 μM, GM6001 1 μM, GM6001 control compound 1 μM; n=7
Description: Recording and Ca^2+ imaging in cerebellar cultures. Cultures of embryonic mouse cerebellum were prepared as previously described and recordings were performed according to our previously published method (Leitges et al., Neuron 44:585-94, 2004). […]. Test pulses were delivered using negative current pulses (300-700 nA, 30-80 msec duration). LTD-inducing pairing stimuli consisted of six, 3-s-long depolarizations to 0 mV, each delivered together with a test pulse of glutamate.
Membrane currents were recorded with an Axopatch 200A amplifier, and digitized at 10 kHz for exogenous glutamate responses and 20 kHz for mEPSCs. Signals were lowpass filtered at 5 kHz (1 kHz for mEPSCs) and acquired using Axograph X software (Axograph Scientific, Sydney, Australia). Recordings in which Rinput or Rseries varied by more than 10% were excluded from the analysis. For analysis of mEPSCs, Axograph X mini analysis software was used. This detected events based on closeness of fit of the mEPSC to a sliding template. Events smaller than − ? 4 pA were discarded. A separate template was created for each recording by averaging 30 of its most unambiguous mEPSCs as selected by eye.
Other studies have shown that LTD in Purkinje cells cultured from embryonic mouse cerebellum requires activation of mGluR1, and is expressed postsynaptically as a reduction in surface AMPA receptors (Chung et al., Science 300:1751-5, 2003; Leitges et al., Neuron 44:585-94, 2004; Linden, PNAS 98:14066-71, 2001; Matsuda et al., EMBO J. 19:2765-74, 2000; Steinberg et al., Neuron 49:845-60, 2006; Wang and Linden, Neuron 25:635-47, 2000). Here, LTD was examined using a purely postsynaptic model in which iontophoretic test pulses of glutamate are applied to voltage-clamped Purkinje cells in culture. Following a baseline recording period, LTD was induced by pairing six 3 sec long depolarizing steps to 0 mV with six glutamate test pulses. When test pulses were resumed after pairing, LTD of the glutamate-evoked inward current was evident (52±9.0% of baseline at t=40 min, n=7 cells, FIG. 6A). […]

[2] = system: GluR1; test: Immunocytochemical staining of surface and internalized GluR1 in cultured hippocampal neurons; assay type: cell-based
Description: Immunocytochemical staining. Immunocytochemical staining of heterologous cells was performed as described (Xu et al., supra). For PMA-stimulation experiments, PMA (Sigma Cat #: P8139) at (150 nM) was added 90 minutes prior to live staining. Images were viewed and captured using Nikon E800 epifluorescence microscope fitted with a Princeton Instruments CCD camera. For live staining, neurons cultured on coverslips were incubated at 10° C. with the appropriate primary antibodies at the indicated dilutions in conditioned culture medium for 20 min. They were then washed with PBS and fixed with 4% paraformaldehyde/4% sucrose in PBS for 20 min at room temperature. Cells were permeablized with 0.2% Triton X-100 in PBS for 5 min and then blocked in 10% normal goat serum in PBS for 1 hr at room temperature. If intracellular proteins were of interest, coverslips were then incubated with antibody diluted in 10% normal goat serum for 1 hr at room temperature or overnight at 4° C. Coverslips were washed with PBS and incubated with secondary antibody conjugated to Alexa488 and Alexa555 (1:500 in 10% normal goat serum, Molecular Probes Eugene, Oreg.). Coverslips were mounted using the Prolong Antifade Kit (Molecular Probes, Eugene, Oreg.). For immunocytochemistry studies, mGluR1/5 were activated using the selective agonist (S)-DHPG (Tocris Cat.# 0805) with mGluR5 allosteric potentiator DFB (Tocris Cat.#1625). Neurons were incubated with DFB (50 μM) for 5 min and then DHPG (50 μM) for an additional 5 min in neuronal incubation medium and then transferred into the original incubation medium. […] Cells were incubated at 37° C. to allow endocytosis. At indicated time points, cells were incubated with N-terminal GluR1 mouse antibody (JH 4093; 0.2 μg/100 μl; kind gift from T. […] (to block endocytosis during staining). Cells were then processed for immunofluorescent staining as described above. An acid strip protocol was employed to measure endocytosed antibody labeled GluR1 (Snyder et al., 2001). Neurons were washed with progressively cooler NIM to slow basal endocytosis. Cells were then live labeled at 10° C. with GluR1 N-terminal antibody (0.2 μg/100 μL JH4094) antibody in NIM for 20 min. After washing unbound excess antibody, cells were incubated sequentially with DFB, DHPG, and original incubation medium at 37° C., as described above. After appropriate incubation times, cells were washed with 4° C. TBS. […] Neurons were then washed with 4° C. TBS followed by processing for immunofluorescent staining as described above. All neurons were viewed and captured using UltraVIEW spinning disk confocal microscope (PerkinElmer Life Sciences, Wellesley, Mass., USA) with a Nikon Eclipse TE 200 microscope and a 63× objective (Nikon, Melville, N.Y.). Images were acquired and saved as Tiff files with a dynamic range of 65536 grey levels (16-bit binary). Image analysis was performed using Metamorph imaging software (Universal Imaging, Downingtown, Pa.). For quantification of the punctate structures (e.g. GluR1), images were thresholded by grey value to differentiate single puncta. Segments of dendrites were selected and number of puncta was calculated per […] of length dendrite. Figures show ratios of calculated mean densities (number of puncta per unit length) from treated/control. Error bars were calculated using SEM and Gaussian error propagation. n=number of measured dendrites. Significance was determined by paired Student's T-test.

[3] = system: NPR cleavage at Site A (TACE); test: NPR cleavage assay in transfected HEK293T cells; assay type: cell-based, rat; settings: TAPI-2 50 μM; GM6001 25 μM
Description: Cleavage Assay HEK293T cells were plated in OptiMEM (Invitrogen, Carlsbad, Calif.) containing 5% FBS onto 6-well dishes at a density of 4×10^5 cells/mL (2 mL/well) 1 day before transfection. Cells were transfected with NPR in pRK5 using LipofectAMINE 2000 (Invitrogen, Carlsbad Calif.). After 24 hr the medium was replaced with serum-free OptiMEM. […] Samples from each well were obtained at specific time points, immediately placed on ice, centrifuged at 15,000 g to remove cell debris, and then treated with 2% β-mercaptoethanol containing loading buffer. At the end of the time course, the cells were lysed with RIPA buffer, centrifuged to remove cell debris, and treated with 2% β-mercaptoethanol in loading buffer. Samples (20 μL of medium or lysate diluted to 1/5) were run on SDS-PAGE gels and analyzed by Western blotting.

[4] = cultured hippocampal neurons DIV 14-17, 45 min after DHPG, TAPI-2 = pretreatment (50 μM) before DHPG
[5] = neurons derived from control mice

Row | SMILES | glutamate-evoked inward current after LTD induction [1] | surface GluR1 puncta density [2, 4] | PMA-stimulated cleavage at Site A / secretion of LFC-NPR into the medium [3] | surface GluR1 puncta density ([2]; DHPG treated neurons cultured from NP TKO mice) | surface GluR1 puncta density ([2]; DHPG treated neurons derived from control mice) | internalized GluR1 (acid-strip protocol) [2, 5] | time to maximal internalized GluR1 after addition of DHPG [2, 5] | GluR1 internalization (acid-strip protocol) ([2]; neurons from NP TKO mice)
1 | CC(C)C[C@H](CC(=O)NO)C(=O)N[C@H](C(=O)N[C@@H](C)C(=O)NCCN)C(C)(C)C [TAPI-2] | 112±8.6 % of baseline | 84.7±12.6 % of vehicle control | inhibited | – | – | – | – | –
2 | N[C@H](C(=O)O)c1cc(O)cc(O)c1 [DHPG, (S)-3,5-dihydroxyphenylglycine] | – | 47.6±8.5 % of vehicle control | – | 113.4±6.3 % of vehicle control | 68.5±6.0 % of vehicle control | evoked an increase in internalized GluR1 | ≤ 5 min | did not increase GluR1 internalization
